Experimental data as given in patent EP0796843B1, “1,25-dihydroxy-16,22,23-trisdehydro-cholecalciferol derivatives” (F. HOFFMANN-LA ROCHE AG, priority 1996, dated 1997).
pEC50, pIC50: −log10 of the molar value.

How the values were obtained:
[1] = Calcium tolerance test in mice (highest tolerated dose, body weight); type: in vivo; conditions: daily subcutaneous administration for 4 consecutive days, dose resulting in zero weight gain during 5 day treatment period
Source text: Profound changes in calcium homeostasis strongly affect the weight development of mice.
Mice (25-30 g body weight) received daily subcutaneous administrations of the compound for 4 consecutive days. Body weight was registered just before and at the end of a […] treatment period. The "highest tolerated dose" (HTD) is the dose which results in zero weight gain during this treatment period.

Sebaceous cells = experiment: Inhibition of sebaceous cell proliferation (cell count); conditions: adult human sebaceous cells in vitro, amount necessary to inhibit proliferation by 50% vs vehicle control
HaCaT cell line = experiment: Inhibition of keratinocyte proliferation (3H-thymidine uptake); type: cell-based, human; conditions: HaCaT cells, 3H-thymidine incorporation after 6 days of culture, concentration leading to 50% of control values
Human T-cell = experiment: Inhibition of T-cell proliferation (3H-thymidine, PHA-stimulated); type: cell-based
Method: Mononuclear cells were isolated from venous blood of healthy donors by centrifugation of buffy coat leucocytes atop Ficoll-Paque. The lymphocytes (70-80% T-cells) were suspended in RPMI 1640 medium supplemented with 10% FCS and adjusted to 10^6 cells/ml. […] of this cell suspension were seeded into flat-bottom microtiter wells and stimulated with […] of PHA. Immediately after seeding, the test compounds listed below in Table V were added to yield final concentrations of between 1x10^-11 M -1 x 10^-6 M. All tests were run in the quadruplicates.
After 3 and 4 days, ^3H-thymidine (5 Ci/mmol) was added to wells at a concentration of […]. Cells were pulse-labeled for the last 6 hours of the growth period. Cells were then harvested on to a 96 well filter plate using a cell harvester. After drying at […] under vacuum for 20-30 minutes, 20 µl of scintillor were added and the radioactivity bound to the filters was counted. Values are expressed as percent controls (samples without test compounds). The concentration leading to 50% of control values is determined graphically and given as IC50 (inhibiting concentration) in Table V. TABLE V

Human T-cells = experiment: Inhibition of γ-interferon release in PHA-stimulated T-cells (ELISA); type: cell-based
HL-60 cells = experiment: Induction of HL-60 cell differentiation (NBT reduction); type: cell-based; conditions: 3 days, concentration leading to 50% of maximal differentiation achieved with 100-1000 nM calcitriol, read-out: ED50 (the source's name)
[2] = human lymphocytes (70-80% T-cells) stimulated with PHA, 3H-thymidine after 3 and 4 days
[3] = human lymphocytes (70-80% T-cells) stimulated with PHA, IFN-g by ELISA on days 3 and 4

Structure (SMILES) | HTD [1] [µg/kg] | ED50 (Sebaceous cells) [nM] | pIC50 (HaCaT cell line; Homo sapiens) | pIC50 (Human T-cell; Homo sapiens, T-cell) | pIC50 (Human T-cells; Homo sapiens, T-cell) | pEC50 (HL-60 cells) | ED50 (Sebaceous cells; listed as 1a,25-dihydroxy-16,22S,23-triene-cholecalciferol) [nM] | pIC50 (HaCaT cell line) | pIC50 (Human T-cell; [2]) | pIC50 (Human T-cells; [3]) | ED50 (Sebaceous cells; listed as 1a,25-dihydroxy-16,22R,23-triene-cholecalciferol) [nM]
C=C1/C(=C\C=C2/CCC[C@]3(C)[C@@H]([C@H](C)CCCC(C)(C)O)CC[C@@H]23)C[C@@H](O)C[C@@H]1O [1,25-Dihydroxy-cholecalciferol, reference compound] | 0.5 | 50 | 7.26 | 8.00 | 9.10 | – | – | – | – | – | –
C=C1/C(=C\C=C2/CCC[C@]3(C)C([C@H](C)C=C=CC(C)(C)O)=CC[C@@H]23)C[C@@H](O)C[C@@H]1O [1,25-Dihydroxy-16,22S,23-triene-cholecalciferol] | 50.0 | – | – | – | – | 8.32 | 10 | 7.40 | 8.22 | 8.52 | –
C=C1/C(=C\C=C2/CCC[C@]3(C)C([C@H](C)C=C=CC(C)(C)O)=CC[C@@H]23)C[C@@H](O)C[C@@H]1O [1,25-Dihydroxy-16,22R,23-triene-cholecalciferol] | 2.5 | – | – | – | – | 9.66 | – | 11.00 | 9.26 | 10.30 | 1
